Source: patent publication US8975406B2, “Compound useful for the treatment of degenerative and inflammatory diseases” (Galapagos N.V., priority 2011, dated 2015)

How the values were obtained:
Assay type in all cases: biochemical
[1] = molecular target: T1, Recombinant human JAK2 catalytic domain (Homo sapiens, UniProt O60674); assay: JAK2 assay polyGT substrate; settings: 33P-gamma-ATP filter assay, 1 μM ATP
T1 construct: catalytic domain (amino acids 808-1132; catalog number PV4210); GST; purchased Invitrogen PV4210
T1 sequence (O60674 808-1132): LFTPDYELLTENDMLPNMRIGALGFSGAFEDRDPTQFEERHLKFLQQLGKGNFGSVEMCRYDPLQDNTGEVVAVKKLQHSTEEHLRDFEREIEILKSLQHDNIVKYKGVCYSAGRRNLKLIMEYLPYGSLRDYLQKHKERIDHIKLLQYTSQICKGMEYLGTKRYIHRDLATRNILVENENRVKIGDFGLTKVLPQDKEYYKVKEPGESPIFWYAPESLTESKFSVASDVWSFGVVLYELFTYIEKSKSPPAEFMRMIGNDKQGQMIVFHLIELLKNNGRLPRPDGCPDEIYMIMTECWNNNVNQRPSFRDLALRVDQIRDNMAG
Experimental: Recombinant human JAK2 catalytic domain (amino acids 808-1132; catalog number PV4210) was purchased from Invitrogen. 0.05 mU of JAK2 was incubated with 2.5 μg polyGT substrate (Sigma catalog number P0275) in kinase reaction buffer (10 mM MOPS pH 7.5, 0.5 mM EDTA, 0.01% Brij-35, 1 mM DTT, 15 mM MgAc, 1 μM non-radioactive ATP, 0.25 μCi ^33P-gamma-ATP (Perkin Elmer, catalog number NEG602K001MC) final concentrations) with or without 5 μL containing test compound or vehicle (DMSO, 1% final concentration), in a total volume of 25 μL, in a polypropylene 96-well plate (Greiner, V-bottom). After 90 min at 30° C., reactions were stopped by adding of 25 μL/well of 150 mM phosphoric acid. All of the terminated kinase reaction was transferred to prewashed (75 mM phosphoric acid) 96 well filter plates (Perkin Elmer catalog number 6005177) using a cell harvester (Perkin Elmer). Plates were washed 6 times with 300 μL per well of a 75 mM phosphoric acid solution and the bottom of the plates was sealed. 40 μL/well of Microscint-20 was added, the top of the plates was sealed and readout was performed using the Topcount (Perkin Elmer). Kinase activity was calculated by subtracting counts per min (cpm) obtained in the presence of a positive control inhibitor (10 μM staurosporine) from cpm obtained in the presence of vehicle. The ability of a test compound to inhibit this activity was determined as: Percentage inhibition=((cpm determined for sample with test compound present−cpm determined for sample with positive control inhibitor)divided by(cpm determined in the presence of vehicle−cpm determined for sample with positive control inhibitor))*100.
(§1) Dose dilution series were prepared for the compounds enabling the testing of dose-response effects in the JAK2 assay and the calculation of the IC50 for each compound. Each compound was routinely tested at concentration of 20 μM followed by a ⅓ serial dilution, 8 points (20 μM-6.67 μM-2.22 μM-740 nM-247 nM-82 nM-27 nM-9 nM) in a final concentration of 1% DMSO. When potency of compound series increased, more dilutions were prepared and/or the top concentration was lowered (e.g. 5 μM, 1 μM).

[2] = molecular target: T2, Recombinant human JAK1 catalytic domain (Homo sapiens, UniProt P23458); assay: JAK1 assay polyGT substrate; settings: 33P-gamma-ATP filter assay, 2 μM ATP
T2 construct: catalytic domain (amino acids 866-1154; catalog number PV4774); purchased Invitrogen PV4774
T2 sequence (P23458 866-1154): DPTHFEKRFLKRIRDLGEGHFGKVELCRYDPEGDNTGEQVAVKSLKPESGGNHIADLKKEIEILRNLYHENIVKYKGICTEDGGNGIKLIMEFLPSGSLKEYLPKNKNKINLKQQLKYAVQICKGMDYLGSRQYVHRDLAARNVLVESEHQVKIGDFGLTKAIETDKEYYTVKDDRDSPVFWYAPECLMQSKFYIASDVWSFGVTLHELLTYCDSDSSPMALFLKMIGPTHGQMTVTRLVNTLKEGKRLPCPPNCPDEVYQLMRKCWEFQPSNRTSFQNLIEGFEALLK
Experimental: Recombinant human JAK1 catalytic domain (amino acids 866-1154; catalog number PV4774) was purchased from Invitrogen. 25 ng of JAK1 was incubated with 6.25 μg polyGT substrate (Sigma catalog number P0275) in kinase reaction buffer (15 mM Hepes pH7.5, 0.01% Tween20, 10 mM MgCl2, 2 μM non-radioactive ATP, 0.25 μCi ^33P-gamma-ATP (Perkin Elmer, catalog number NEG602K001MC) final concentrations) with or without 5 μL containing test compound or vehicle (DMSO, 1% final concentration), in a total volume of 25 μL, in a polypropylene 96-well plate (Greiner, V-bottom). After 75 min at 30° C., reactions were stopped by adding of 25 μL/well of 150 mM phosphoric acid. All of the terminated kinase reaction was transferred to prewashed (75 mM phosphoric acid) 96 well filter plates (Perkin Elmer catalog number 6005177) using a cell harvester (Perkin Elmer). Plates were washed 6 times with 300 μL per well of a 75 mM phosphoric acid solution and the bottom of the plates was sealed. 40 μL/well of Microscint-20 was added, the top of the plates was sealed and readout was performed using the Topcount (Perkin Elmer). Kinase activity was calculated by subtracting counts per min (cpm) obtained in the presence of a positive control inhibitor (10 μM staurosporine) from cpm obtained in the presence of vehicle. The ability of a test compound to inhibit this activity was determined as: Percentage inhibition=((cpm determined for sample with test compound present−cpm determined for sample with positive control inhibitor)divided by(cpm determined in the presence of vehicle−cpm determined for sample with positive control inhibitor))*100.
as §1, with “JAK1” for “JAK2”

JAK3 = molecular target: T3, JAK3 (Homo sapiens, UniProt P52333); assay: JAK3 Ki determination assay; settings: Lineweaver-Burk plot, polyGT substrate, varying ATP
T3 construct: catalytic domain (amino acids 795-1124; catalog number 08-046); purchased Carna Biosciences 08-046
T3 sequence (P52333 795-1124): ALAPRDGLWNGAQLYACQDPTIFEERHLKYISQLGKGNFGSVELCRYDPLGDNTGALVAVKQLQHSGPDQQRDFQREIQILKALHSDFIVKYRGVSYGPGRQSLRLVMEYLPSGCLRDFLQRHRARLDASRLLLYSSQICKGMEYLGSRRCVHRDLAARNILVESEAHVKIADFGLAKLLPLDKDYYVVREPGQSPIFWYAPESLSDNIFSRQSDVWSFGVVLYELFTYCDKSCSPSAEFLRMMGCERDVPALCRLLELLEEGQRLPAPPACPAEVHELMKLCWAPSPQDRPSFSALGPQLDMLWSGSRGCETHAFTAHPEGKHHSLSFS
Experimental: For the determination of Ki, different amounts of compound are mixed with the enzyme and the enzymatic reaction is followed as a function of ATP concentration. The Ki is determined by means of double reciprocal plotting of Km vs compound concentration (Lineweaver-Burk plot). JAK3 (Carna Biosciences, 08-046) was used at a final concentration of 20 ng/ml. The substrate was Poly(Glu,Tyr)sodium salt (4:1), MW 20 000-50 000 (Sigma, P0275) The reaction was performed in 25 mM Tris pH 7.5, 0.01% Triton X-100, 0.5 mM EGTA, 2.5 mM DTT, 0.5 mM Na3VO4, 5 mM b-glycerolphosphate, 10 mM MgCl2 with varying concentrations of ATP and compound and stopped by addition of 150 mM phosphoric acid. Measurement of incorporated phosphate into the substrate polyGT was done by loading the samples on a filter plate (using a harvester, Perkin Elmer) and subsequent washing. Incorporated ^33P in polyGT is measured in a Topcount scintillation counter after addition of scintillation liquid to the filter plates (Perkin Elmer).

| Structure (SMILES) | IC50 [1] | IC50 [2] | Ki (JAK3) |
| --- | --- | --- | --- |
| COc1ccc(-c2cccn3nc(NC(=O)C4CC4)cc23)cc1 [Compound 1, N-(4-(4-methoxyphenyl)pyrazolo[1,5-a]pyridin-2-yl)cyclopropanecarboxamide] | 0.01 to 100 nM | 0.01 to 100 nM | – |
| O=C(Nc1cc2c(-c3ccc(OCc4ccccc4)cc3)cccn2n1)C1CC1 [Compound 2, N-(4-(4-(benzyloxy)phenyl)pyrazolo[1,5-a]pyridin-2-yl)cyclopropanecarboxamide] | 101 to 500 nM | 0.01 to 100 nM | – |
| O=C(Nc1cc2c(-c3ccc4c(ccn4Cc4ccccc4)c3)cccn2n1)C1CC1 [Compound 3, N-(4-(1-benzyl-1H-indol-5-yl)pyrazolo[1,5-a]pyridin-2-yl)cyclopropanecarboxamide] | 101 to 500 nM | 0.01 to 100 nM | – |
| O=C(Nc1cc2c(-c3ccc4[nH]ccc4c3)cccn2n1)C1CC1 [Compound 4, N-(4-(1H-indol-5-yl)pyrazolo[1,5-a]pyridin-2-yl)cyclopropanecarboxamide] | 0.01 to 100 nM | 0.01 to 100 nM | – |
| O=C(NCCc1ccccc1)c1ccc(-c2cccn3nc(NC(=O)C4CC4)cc23)cc1 [Compound 5, 4-(2-(cyclopropanecarboxamido)pyrazolo[1,5-a]pyridin-4-yl)-N-phenethylbenzamide] | 0.01 to 100 nM | 0.01 to 100 nM | – |
| O=C(NCCOc1ccccc1)c1ccc(-c2cccn3nc(NC(=O)C4CC4)cc23)cc1 [Compound 6, 4-(2-(cyclopropanecarboxamido)pyrazolo[1,5-a]pyridin-4-yl)-N-(2-phenoxyethyl)benzamide] | 0.01 to 100 nM | 0.01 to 100 nM | – |
| COc1ccc(-c2cccn3nc(NC(=O)C4CC4)c(-c4ccccc4)c23)cc1 [Compound 7, N-(4-(4-methoxyphenyl)-3-phenylpyrazolo[1,5-a]pyridin-2-yl)cyclopropanecarboxamide] | > 1000 nM | > 1000 nM | – |
| O=C(Nc1cc2c(-c3ccc(OCc4cccnc4)cc3)cccn2n1)C1CC1 [Compound 8, N-(4-(4-(pyridin-3-ylmethoxy)phenyl)pyrazolo[1,5-a]pyridin-2-yl)cyclopropanecarboxamide] | 0.01 to 100 nM | 0.01 to 100 nM | – |
| CC(=O)Nc1cc2c(-c3ccc(CN4CCN(S(C)(=O)=O)CC4)c(F)c3)cccn2n1 [Compound 21] | – | – | 227 nM |
